# According to patent US7135475B2, “Amide substituted xanthine derivatives” (Hoffmann-La Roche Inc., priority 2002, dated 2006):
# pIC50: −log10 of the molar value.
# Biological target: T1, recombinant human cytosolic PEPCK (Homo sapiens, UniProt P35558)
# T1 sequence (P35558 1-622): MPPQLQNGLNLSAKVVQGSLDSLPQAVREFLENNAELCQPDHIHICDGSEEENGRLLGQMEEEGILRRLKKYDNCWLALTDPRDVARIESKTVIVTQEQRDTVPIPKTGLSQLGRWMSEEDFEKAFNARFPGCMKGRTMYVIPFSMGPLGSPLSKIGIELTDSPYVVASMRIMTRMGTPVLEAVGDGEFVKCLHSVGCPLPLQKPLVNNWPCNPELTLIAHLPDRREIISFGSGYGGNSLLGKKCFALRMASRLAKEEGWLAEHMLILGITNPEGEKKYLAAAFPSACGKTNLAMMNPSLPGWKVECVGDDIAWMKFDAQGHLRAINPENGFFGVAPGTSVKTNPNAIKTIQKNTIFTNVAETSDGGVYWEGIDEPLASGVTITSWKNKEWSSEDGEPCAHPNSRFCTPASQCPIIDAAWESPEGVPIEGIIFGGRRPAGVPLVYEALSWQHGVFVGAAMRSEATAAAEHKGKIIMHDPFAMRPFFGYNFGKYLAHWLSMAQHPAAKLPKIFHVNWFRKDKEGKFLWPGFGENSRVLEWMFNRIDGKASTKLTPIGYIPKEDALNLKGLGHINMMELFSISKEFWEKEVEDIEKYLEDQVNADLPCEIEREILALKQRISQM
# Experiment: PEPCK enzyme assay (coupled pyruvate kinase/lactate dehydrogenase, absorbance at 340)
# Format: biochemical
# Conditions: recombinant human cytosolic GST-PEPCK; GTP and OAA at 3 fold and 10 fold Km; final DMSO 10%; room temperature, twenty minutes; read-out: In vitro IC50
# Procedure: E. coli cells expressing GST-PEPCK were suspended in 5 volumes of lysis buffer (50 mM Tris-hydroxymethyl aminomethyl (TRIS), 150 mM sodium chloride (NaCl), 10 mM ethylene-diametetraacetic acid (EDTA), 5 mM dithiothreitol(DTT), 1% Nonidet P-40, pH 7.4) in the presence of protease inhibitors, incubated with lysozyme at 200 micrograms/ml for 30 min. at room temperature, and sonicated 4×30 seconds at 4 degrees C. After centrifugation at 12,000×g for 20 min. to remove insoluble material, the supernatant was loaded onto glutathione Sepharose (Pharmacia), washed with lysis buffer followed by washing with lysis buffer in the absence of NP-40. GST-PEPCK was eluted with the same buffer containing 20 mM glutathione. The eluted protein was concentrated and dialyzed against 25 mM Hepes(N-[2-hydroxyethyl]piperazine-N′[2-ethanesulfonic acid), 150 mM NaCl, 2.5 mM EDTA, 5 mM DTT, 30% glycerol, pH 7.4, and stored at −20 ° C.
# The inhibitory effect of the compounds of the present invention on PEPCK enzymatic activity was determined using recombinant human cytosolic PEPCK, expressed and purified from E.coli as a GST-fusion. Guanosine triphosphate (GTP) and manganese dependent PEPCK enzyme activity catalyzed the decarboxylation of oxalacetate leading to the formation of guanosine diphosphate (GDP) and phosphoenol pyruvate (PEP). This reaction is coupled to pyruvate kinase and lactate dehydrogenase catalyzed reactions and the overall reaction rate determined by measuring the change in absorbance at 340 nm (Chang, H. C. and Lane M. D., J. Biol.Chem. 241:2413–2420, 1966). The following modifications were made to the protocol: 2.5 μg of recombinant, human cytosolic glutathione-S-transferase (GST)-PEPCK was added to a reaction mixture at room temperature which contained 0.3 mM GTP, 0.3 mM oxaloacetate (OAA), 3 mM magnesium chloride (MgCl2), 0.075 mM manganese chloride (MnCl2), 30 mM potassium phosphates (KPO4), pH 7.6, 1 mM dithiothreitol (DTT), 0.2 mM adenosine diphosphate (ADP), 1 mM nicotinamide adenine dinucleotide, reduced form (NADH), 0.9 Units/ml each of pyruvate kinase and lactate dehydrogenase and 1 mg/ml bovine serum albumin (BSA). Test compounds were added such that final concentration of DMSO was 10%. Reactions were run for twenty minutes.
# Km values for GTP and OAA were determined according to Michelis-Menton conditions as described in Cornish-Bowden (Fundamentals of Enzyme Kinetics, 1995) in essentially the coupled assay conditions described above. […] Test compounds were added to reactions over a range of concentrations and IC50's were calculated from plots of inhibitor concentration versus enzyme rate. This method of determination of IC50 values is equally applicable to calculations based on PEPCK cellular assay.
# The in vitro biological activity of several representative preferred compounds of the present invention in the foregoing PEPCK enzymatic assay is presented in Table 1.
row,SMILES,pIC50
1,"CC(=O)Nc1ccc(Cc2nc3c([nH]2)c(=O)n(Cc2ccccc2F)c(=O)n3C[C@@H]2C[C@@H]2C(=O)O)cc1 (relative stereo) [Example 47, 2-[8-(4-Acetylamino-benzyl)-1-(2-fluorobenzyl)-2,6-dioxo-1,2,6,7-tetrahydro-purin-3-ylmethyl]-cyclopropanecarboxylic acid]",6.25
2,"CC(=O)Nc1ccc(Cc2nc3c([nH]2)c(=O)n(Cc2ccccc2F)c(=O)n3CC2CC2)cc1 [Example 42, N-{4-[3-Cyclopropylmethyl-1-(2-fluorobenzyl)-2,6-dioxo-2,3,6,7-tetrahydro-1H-purin-8-ylmethyl]-phenyl}-acetamide]",6.03
3,"CC(=O)Nc1cccc(C(=O)N(C)c2ccc(Cc3nc4c([nH]3)c(=O)n(Cc3ccccc3F)c(=O)n4CC3CC3)cc2)n1 [Example 79, 6-Acetylamino-pyridine-2-carboxylic acid {4-[3-cyclopropylmethyl-1-(2-fluorobenzyl)-2,6-dioxo-2,3,6,7-tetrahydro-1H-purin-8-ylmethyl]-phenyl}-methyl-amide]",6.25
4,"Cc1cncc(C(=O)N(C)c2ccc(Cc3nc4c([nH]3)c(=O)n(Cc3ccccc3F)c(=O)n4CC3CC3)cc2)c1 [Example 85, N-{4-[3-cyclopropylmethyl-1-(2-fluorobenzyl)-2,6-dioxo-2,3,6,7-tetrahydro-1H-purin-8-ylmethyl]-phenyl}-5,N-dimethyl-nicotinamide]",6.40
5,"Cc1ccc(C(=O)N(C)c2ccc(Cc3nc4c([nH]3)c(=O)n(Cc3ccccc3F)c(=O)n4CC3CC3)cc2)cn1 [Example 86, N-{4-[3-cyclopropylmethyl-1-(2-fluorobenzyl)-2,6-dioxo-2,3,6,7-tetrahydro-1H-purin-8-ylmethyl]-phenyl}-6,N-dimethyl-nicotinamide]",6.38
6,"Cc1ccc(C(=O)N(C)c2ccc(Cc3nc4c([nH]3)c(=O)n(Cc3ccccc3F)c(=O)n4CC3CCC3)cc2)cn1 [Example 88, N-{4-[3-Cyclobutylmethyl-1-(2-fluorobenzyl)-2,6-dioxo-2,3,6,7-tetrahydro-1H-purin-8-ylmethyl]-phenyl}-6,N-dimethyl-nicotinamide]",6.47
7,"COc1ccc(C(=O)N(C)c2ccc(Cc3nc4c([nH]3)c(=O)n(Cc3ccccc3F)c(=O)n4CC3CC3)cc2)c(OC)n1 [Example 90, N-{4-[3-cyclopropylmethyl-1-(2-fluorobenzyl)-2,6-dioxo-2,3,6,7-tetrahydro-1H-purin-8-ylmethyl]-phenyl}-2,6-dimethoxy-N-methyl-nicotinamide]",6.47
8,"CN(C(=O)Cc1cccnc1)c1ccc(Cc2nc3c([nH]2)c(=O)n(Cc2ccccc2F)c(=O)n3CC2CC2)cc1 [Example 91, N-{4-[3-cyclopropylmethyl-1-(2-fluorobenzyl)-2,6-dioxo-2,3,6,7-tetrahydro-1H-purin-8-ylmethyl]-phenyl}-N-methyl-2-pyridin-3-yl-acetamide]",6.39
9,"CN(C(=O)c1ccc(C#N)nc1)c1ccc(Cc2nc3c([nH]2)c(=O)n(Cc2ccccc2F)c(=O)n3CC2CC2)cc1 [Example 92, 6-Cyano-N-{4-[3-cyclopropylmethyl-1-(2-fluorobenzyl)-2,6-dioxo-2,3,6,7-tetrahydro-1H-purin-8-ylmethyl]-phenyl}-N-methyl-nicotinamide]",6.36
10,"CN(C(=O)c1cccnc1N)c1ccc(Cc2nc3c([nH]2)c(=O)n(Cc2ccccc2F)c(=O)n3CC2CC2)cc1 [Example 93, 2-Amino-N-{4-[3-cyclopropylmethyl-1-(2-fluorobenzyl)-2,6-dioxo-2,3,6,7-tetrahydro-1H-purin-8-ylmethyl]-phenyl}-N-methyl-nicotinamide]",6.55

# Other lines, results leading:
row,pIC50,SMILES
1,6.47,"CN(C(=O)c1ccc(N)nc1)c1ccc(Cc2nc3c([nH]2)c(=O)n(Cc2ccccc2F)c(=O)n3CC2CC2)cc1 [Example 94, 6-Amino-N-{4-[3-cyclopropylmethyl-1-(2-fluorobenzyl)-2,6-dioxo-2,3,6,7-tetrahydro-1H-purin-8-ylmethyl]-phenyl}-N-methyl-nicotinamide]"
2,6.43,"Cc1ncccc1C(=O)N(C)c1ccc(Cc2nc3c([nH]2)c(=O)n(Cc2ccccc2F)c(=O)n3CC2CC2)cc1 [Example 95, N-{4-[3-Cyclopropylmethyl-1-(2-fluorobenzyl)-2,6-dioxo-2,3,6,7-tetrahydro-1H-purin-8-ylmethyl]-phenyl}-2,N-dimethyl-nicotinamide]"
3,6.42,"CN(C(=O)c1cncnc1)c1ccc(Cc2nc3c([nH]2)c(=O)n(Cc2ccccc2F)c(=O)n3CC2CC2)cc1 [Example 96, Pyrimidine-5-carboxylic acid {4-[3-cyclopropylmethyl-1-(2-fluorobenzyl)-2,6-dioxo-2,3,6,7-tetrahydro-1H-purin-8-ylmethyl]-phenyl}-methyl-amide]"
4,6.38,"CN(C(=O)c1cccnc1)c1ccc(Cc2nc3c([nH]2)c(=O)n(Cc2ccccc2F)c(=O)n3CC2CC2)cc1 [Example 97, N-{4-[3-Cyclopropylmethyl-1-(2-fluorobenzyl)-2,6-dioxo-2,3,6,7-tetrahydro-1H-purin-8-ylmethyl]-phenyl}-N-methyl-nicotinamide]"
5,6.36,"CC(=O)Nc1ccc(C(=O)N(C)c2ccc(Cc3nc4c([nH]3)c(=O)n(Cc3ccccc3F)c(=O)n4CC3CC3)cc2)cn1 [Example 98, 6-Acetylamino-N-{4-[3-cyclopropylmethyl-1-(2-fluorobenzyl)-2,6-dioxo-2,3,6,7-tetrahydro-1H-purin-8-ylmethyl]-phenyl}-N-methyl-nicotinamide]"
6,6.34,"CN(C(=O)c1cnccn1)c1ccc(Cc2nc3c([nH]2)c(=O)n(Cc2ccccc2F)c(=O)n3CC2CC2)cc1 [Example 99, Pyrazine-2-carboxylic acid {4-[3-cyclopropylmethyl-1-(2-fluorobenzyl)-2,6-dioxo-2,3,6,7-tetrahydro-1H-purin-8-ylmethyl]-phenyl}-methyl-amide]"
7,6.26,"CN(C(=O)c1ccc(O)nc1)c1ccc(Cc2nc3c([nH]2)c(=O)n(Cc2ccccc2F)c(=O)n3CC2CC2)cc1 [Example 100, N-{4-[3-Cyclopropylmethyl-1-(2-fluorobenzyl)-2,6-dioxo-2,3,6,7-tetrahydro-1H-purin-8-ylmethyl]-phenyl}-6-hydroxy-N-methyl-nicotinamide]"
8,6.20,"CN(C(=O)c1cccnc1O)c1ccc(Cc2nc3c([nH]2)c(=O)n(Cc2ccccc2F)c(=O)n3CC2CC2)cc1 [Example 101, N-{4-[3-Cyclopropylmethyl-1-(2-fluorobenzyl)-2,6-dioxo-2,3,6,7-tetrahydro-1H-purin-8-ylmethyl]-phenyl}-2-hydroxy-N-methyl-nicotinamide]"
9,6.64,"Cc1nn(C)c(C)c1C(=O)N(C)c1ccc(Cc2nc3c([nH]2)c(=O)n(Cc2ccccc2F)c(=O)n3CC2CC2)cc1 [Example 102, 1,3,5-Trimethyl-1H-pyrazole-4-carboxylic acid {4-[3-cyclopropylmethyl-1-(2-fluorobenzyl)-2,6-dioxo-2,3,6,7-tetrahydro-1H-purin-8-ylmethyl]-phenyl}-methyl-amide]"
10,6.60,"Cc1nn(C)c(C)c1C(=O)C(=O)N(C)c1ccc(Cc2nc3c([nH]2)c(=O)n(Cc2ccccc2F)c(=O)n3CC2CC2)cc1 [Example 103, N-{4-[3-Cyclopropylmethyl-1-(2-fluorobenzyl)-2,6-dioxo-2,3,6,7-tetrahydro-1H-purin-8-ylmethyl]-phenyl}-N-methyl-2-oxo-2-(1,3,5-trimethyl-1H-pyrazol-4-yl)-acetamide]"
